This note sets out measurements from PubChem BioAssay (NCI).

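Results reflect a 48-hour exposure of cells in 96-well plates to compound at five concentrations. GI50: concentration for 50% inhibition of growth. At the TGI there is no net growth.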

Test systems include HCT-15 colon; IGROV1 ovarian; MCF7 breast; OVCAR-3 ovarian; SF-539 CNS; SK-MEL-2 melanoma; UACC-257 melanoma; MOLT-4 leukemia; RPMI-8226 leukemia.
Holding throughout (assay): NCI anticancer screen, dose series, 48 h

On to `COc1ccc2[nH]cc(-c3nc(-c4cn(C)c5ccncc45)cs3)c2c1`, for which the GI50 with HCT-15 colon is 1.88 µM; in the assay on IGROV1 ovarian, 1.93 µM; in the assay on MCF7 breast, 1.81 µM; in the assay with OVCAR-3 ovarian it was 1.85 µM; with SF-539 CNS, 1.9 µM; in the assay with SK-MEL-2 melanoma, 15.8 µM. For the same compound, the GI50 in the assay on UACC-257 melanoma is 16.7 µM. For the same compound, the TGI in the assay with HCT-15 colon was 3.92 µM; in the assay with IGROV1 ovarian, 3.54 µM; with MCF7 breast, 3.65 µM; in the assay on OVCAR-3 ovarian, 3.41 µM; with SF-539 CNS, 3.37 µM; in the assay on SK-MEL-2 melanoma, 30.1 µM. Moreover, the TGI in the assay on UACC-257 melanoma came to 33.3 µM.
As to `Cc1ccccc1C(=O)Oc1ccc(Oc2ccccc2)cc1`, the TGI in the assay with HCT-15 colon, with IGROV1 ovarian, with MOLT-4 leukemia, in the assay on OVCAR-3 ovarian, in the assay with RPMI-8226 leukemia and with SF-539 CNS was greater than 100 µM each time. The TGI in the assay on SK-MEL-2 melanoma and with UACC-257 melanoma was greater than 100 µM throughout.
Take `N#Cc1ccccc1C#C/C=C\C#Cc1ccc(OCCCNC(=O)c2cc3ccccc3[nH]2)cc1`: the GI50 in the assay on HCT-15 colon is 26.2 µM; in the assay with IGROV1 ovarian, 14.1 µM; in the assay with MCF7 breast, 33.4 µM; with MOLT-4 leukemia, 5.23 µM; with OVCAR-3 ovarian it was 18.2 µM; in the assay with SF-539 CNS, 15.4 µM. For the same compound, the GI50 in the assay on SK-MEL-2 melanoma is 20.5 µM; in the assay with UACC-257 melanoma, 23 µM. Besides, the TGI is greater than 100 µM in the assay with HCT-15 colon; 33.7 µM in the assay with IGROV1 ovarian; greater than 100 µM with MCF7 breast; 23.4 µM with MOLT-4 leukemia; 41.4 µM with OVCAR-3 ovarian; 35.6 µM in the assay on SF-539 CNS. Besides, the TGI is 44.6 µM in the assay with SK-MEL-2 melanoma and greater than 100 µM with UACC-257 melanoma.
`CC(=O)OC1COC(S[As](C)C)C(OC(C)=O)C1OC(C)=O` (stereo not given): the GI50 with HCT-15 colon is 0.191 µM; in the assay with IGROV1 ovarian, 0.225 µM; in the assay with MCF7 breast it was 0.165 µM; in the assay with MOLT-4 leukemia, 0.0152 µM; in the assay with OVCAR-3 ovarian, less than 0.0138 µM; in the assay on SF-539 CNS it was 0.0713 µM. For the same compound, the GI50 was 0.429 µM in the assay on SK-MEL-2 melanoma and 2.61 µM in the assay on UACC-257 melanoma. Further, the TGI with HCT-15 colon turned out to be 1.36 µM; in the assay on IGROV1 ovarian, 1.58 µM; in the assay on MCF7 breast, 5.2 µM; in the assay on MOLT-4 leukemia, 0.0672 µM; in the assay with OVCAR-3 ovarian, 0.0404 µM; with RPMI-8226 leukemia, 0.0245 µM. Besides, the TGI in the assay on SF-539 CNS stood at 0.315 µM; in the assay with SK-MEL-2 melanoma, 1.99 µM.
For `Cn1c(CCC#N)nc2ccc(Br)cc2c1=O`, the TGI with HCT-15 colon, with IGROV1 ovarian, in the assay on MOLT-4 leukemia, in the assay on RPMI-8226 leukemia, in the assay with SF-539 CNS and in the assay with SK-MEL-2 melanoma was greater than 100 µM each time. The compound also gave a TGI with UACC-257 melanoma greater than 100 µM.
`CN(C)CCn1c2ccccc2c2nc3cc4ccccc4cc3nc21`: the TGI in the assay with HCT-15 colon came out at 18.7 µM; in the assay with IGROV1 ovarian, 10.7 µM; in the assay on MOLT-4 leukemia, 4.1 µM; in the assay on OVCAR-3 ovarian, 28.2 µM; in the assay with RPMI-8226 leukemia, 13.2 µM; in the assay on SK-MEL-2 melanoma, 24.8 µM.
On to `COc1ccc(-c2n[nH]nc2-c2csc3ccccc23)cc1OC`, for which the GI50 with HCT-15 colon was 1.67 µM; with IGROV1 ovarian it was 4.21 µM; with MCF7 breast, 1.45 µM; in the assay with MOLT-4 leukemia, 3.05 µM; with OVCAR-3 ovarian it was 1.94 µM; with RPMI-8226 leukemia, 3.64 µM. Also, the figures for the GI50 in the assay with SF-539 CNS, with SK-MEL-2 melanoma and in the assay on UACC-257 melanoma were 1.84 µM, 1.44 µM and 10.9 µM, respectively. In addition, the TGI is 14.7 µM in the assay with HCT-15 colon; greater than 100 µM in the assay on IGROV1 ovarian; 15.1 µM with MCF7 breast; 27.7 µM in the assay on MOLT-4 leukemia; 7.63 µM in the assay with OVCAR-3 ovarian; 59 µM in the assay on RPMI-8226 leukemia. The TGI with SF-539 CNS stood at 5.79 µM; in the assay on SK-MEL-2 melanoma, 7.65 µM; with UACC-257 melanoma, 55.6 µM.
`O=c1[nH]c(Br)nc2c(Br)c[nH]c12`: the TGI with HCT-15 colon, with IGROV1 ovarian, with MOLT-4 leukemia, with OVCAR-3 ovarian, with RPMI-8226 leukemia and in the assay with SF-539 CNS was greater than 100 µM each time. Moreover, the TGI in the assay on SK-MEL-2 melanoma and in the assay with UACC-257 melanoma was greater than 100 µM throughout.
Consider `O=c1/c(=C/c2ccc(Cl)cc2Cl)sc2nc3ccccc3n12`, for which the TGI in the assay with HCT-15 colon, in the assay with IGROV1 ovarian, with MOLT-4 leukemia, with OVCAR-3 ovarian, with SF-539 CNS and in the assay with SK-MEL-2 melanoma was greater than 100 µM in each case. The TGI with UACC-257 melanoma is greater than 100 µM.
Turning to `C=CC1CC12C(=O)C1OC2(C)C2C(=O)c3c(ccc4c3ccc3ccccc34)C(=O)C12` (stereo not given), the GI50 is 14.2 µM in the assay with HCT-15 colon; 34.2 µM in the assay on MCF7 breast; 30.8 µM with MOLT-4 leukemia; 12 µM with RPMI-8226 leukemia; 47.2 µM in the assay with SF-539 CNS; greater than 100 µM in the assay with SK-MEL-2 melanoma. For the same compound, the GI50 with UACC-257 melanoma is 89.4 µM. Also, the TGI in the assay on HCT-15 colon was 80.6 µM; in the assay on MCF7 breast, greater than 100 µM; in the assay with MOLT-4 leukemia, greater than 100 µM; in the assay with RPMI-8226 leukemia, greater than 100 µM; in the assay on SF-539 CNS, greater than 100 µM; in the assay with SK-MEL-2 melanoma, greater than 100 µM. The TGI with UACC-257 melanoma was greater than 100 µM.
For `CC(=O)O[C@@H]1CO[C@H]2O[C@H]3[C@@H](C(C=O)=C[C@H](O)[C@@H]4C5=C(C(C)C)CC[C@]5(C)CC[C@@]34C)[C@@]2(O)C1=O`, the TGI with HCT-15 colon came out at 0.687 µM; with IGROV1 ovarian it was 0.714 µM; in the assay with MCF7 breast it was 1.69 µM; with MOLT-4 leukemia, 0.28 µM; with OVCAR-3 ovarian it was 0.278 µM; with RPMI-8226 leukemia, 1.6 µM. Moreover, the values for the TGI in the assay on SF-539 CNS, with SK-MEL-2 melanoma and in the assay on UACC-257 melanoma were 0.37 µM, 0.596 µM and 0.629 µM, respectively.
As to `Nc1ccc2c(c1)C(=O)c1c(F)cccc1-2`, the TGI with HCT-15 colon is greater than 100 µM; in the assay on MCF7 breast, 41.7 µM; in the assay with OVCAR-3 ovarian it was greater than 100 µM; in the assay with RPMI-8226 leukemia it was greater than 100 µM; in the assay with SF-539 CNS, 81.1 µM; in the assay on SK-MEL-2 melanoma it was greater than 100 µM. The same compound displayed a TGI with UACC-257 melanoma greater than 100 µM.
